The results in this text go back to patent publication US12071425B2 (Genentech, Inc., priority 2018, dated 2024).

Where a name gives a salt, the structure may show the parent alone.

What is called IC50 is the concentration that inhibits the measured activity by half. A high value points to weaker potency.

In the assay the target is kinase domain of IRE1 alpha (His-tagged kinase dead construct KR, AA G547-L977, D688N) (Homo sapiens (Human), UniProt O75460, D688N). Nature of the assay: IRE1α TR-FRET competition binding assay. As to conditions: competition with Kinase Tracer 236, 0.1 μM; one hour at room temperature. An outline of the steps:
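Sf9-expressed kinase-dead KR construct (0.006 μM final) pre-incubated 1 h at 4° C with Eu anti-His antibody (0.002 μM) in HEPES pH 7.5/MgCl2/Brij/DTT buffer; Kinase Tracer 236 (ATP-competitive probe, 0.1 μM final) added with compound. 1 h at room temperature; tracer displacement read by TR-FRET (665/615 nm).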
For orientation: TR-FRET usually uses a lanthanide donor and a delayed reading to cut background.

Sequence of kinase domain of IRE1 alpha (His-tagged kinase dead construct KR, AA G547-L977, D688N) (O75460 547-977 D688N): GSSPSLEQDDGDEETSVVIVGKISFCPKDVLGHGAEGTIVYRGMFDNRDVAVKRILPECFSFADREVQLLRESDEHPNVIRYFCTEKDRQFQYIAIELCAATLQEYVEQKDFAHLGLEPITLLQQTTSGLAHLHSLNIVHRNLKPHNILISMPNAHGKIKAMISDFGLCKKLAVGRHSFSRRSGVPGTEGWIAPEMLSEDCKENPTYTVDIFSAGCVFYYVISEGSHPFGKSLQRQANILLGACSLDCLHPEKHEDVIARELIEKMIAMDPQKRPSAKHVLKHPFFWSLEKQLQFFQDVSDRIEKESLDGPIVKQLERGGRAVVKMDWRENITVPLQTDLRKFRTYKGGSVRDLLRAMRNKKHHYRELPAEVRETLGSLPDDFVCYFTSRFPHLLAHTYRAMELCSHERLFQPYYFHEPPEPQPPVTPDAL

`O=S(=O)(Cc1ccc(C2CC2)cc1)Nc1c(F)cc(Oc2ncccc2-c2ccnc(N[C@@H]3CNC[C@@H](F)C3)n2)c(F)c1F` [Compound 315, 1-(4-Cyclopropylphenyl)-N-(2,3,6-trifluoro-4-((3-(2-(((3S,5S)-5-fluoropiperidin-3-yl)amino)pyrimidin-4-yl)pyridin-2-yl)oxy)phenyl)methanesulfonamide]: the IC50 came out at 0.23 nM. `O=S(=O)(Cc1ccc(F)cc1F)Nc1c(F)cc(Oc2ncccc2-c2ccnc(N[C@@H]3CNC[C@H](CF)C3)n2)c(F)c1F` [Compound 320, 1-(2,4-Difluorophenyl)-N-(2,3,6-trifluoro-4-((3-(2-(((3S,5R)-5-(fluoromethyl)piperidin-3-yl)amino)pyrimidin-4-yl)pyridin-2-yl)oxy)phenyl)methanesulfonamide] gave an IC50 of 35 nM.

In the case of `N#Cc1ccc(CS(=O)(=O)Nc2c(F)cc(Oc3ncccc3-c3ccnc(N[C@@H]4CNC[C@H](CF)C4)n3)c(F)c2F)cc1` [Compound 321, 1-(4-Cyanophenyl)-N-(2,3,6-trifluoro-4-((3-(2-(((3S,5R)-5-(fluoromethyl)piperidin-3-yl)amino)pyrimidin-4-yl)pyridin-2-yl)oxy)phenyl)methanesulfonamide], the IC50 came out at 0.65 nM. For `Cc1cc(F)ccc1CS(=O)(=O)Nc1c(F)cc(Oc2ncccc2-c2ccnc(N[C@@H]3CNC[C@@H](F)C3)n2)c(F)c1F` [Compound 322, 1-(4-Fluoro-2-methylphenyl)-N-(2,3,6-trifluoro-4-((3-(2-(((3S,5S)-5-fluoropiperidin-3-yl)amino)pyrimidin-4-yl)pyridin-2-yl)oxy)phenyl)methanesulfonamide] the value was 0.42 nM. For `O=S(=O)(Cc1ccccc1F)Nc1c(Cl)cc(Oc2ncccc2-c2ccnc(N[C@@H]3CNC[C@@H](F)C3)n2)c(F)c1F` [Compound 323, N-(6-Chloro-2,3-difluoro-4-((3-(2-(((3S,5S)-5-fluoropiperidin-3-yl)amino)pyrimidin-4-yl)pyridin-2-yl)oxy)phenyl)-1-(2-fluorophenyl)methanesulfonamide] the value was 0.33 nM. For `O=S(=O)(Cc1ccccc1F)Nc1c(F)cc(Oc2ncccc2-c2ccnc(N[C@@H]3CNC[C@@H](F)C3)n2)c(Cl)c1F` [Compound 332, N-(3-Chloro-2,6-difluoro-4-((3-(2-(((3S,5S)-5-fluoropiperidin-3-yl)amino)pyrimidin-4-yl)pyridin-2-yl)oxy)phenyl)-1-(2-fluorophenyl)methanesulfonamide] the value was 56 nM; for `CC(C)(F)C1CNCC(Nc2nccc(-c3cccnc3Oc3cc(F)c(NS(=O)(=O)Cc4ccccc4)c(F)c3F)n2)C1` (centres unmarked) [Compound 333, 1-Phenyl-N-(2,3,6-trifluoro-4-((3-(2-((5-(2-fluoropropan-2-yl)piperidin-3-yl)amino)pyrimidin-4-yl)pyridin-2-yl)oxy)phenyl)methanesulfonamide hydrochloride], 0.19 nM. In turn, `O=S(=O)(Cc1ccccc1F)Nc1cc(Cl)c(Oc2ncccc2-c2ccnc(N[C@@H]3CNC[C@@H](F)C3)n2)c(F)c1F` [Compound 340, N-(5-Chloro-2,3-difluoro-4-((3-(2-(((3S,5S)-5-fluoropiperidin-3-yl)amino)pyrimidin-4-yl)pyridin-2-yl)oxy)phenyl)-1-(2-fluorophenyl)methanesulfonamide] had an IC50 of 7.5 nM.

The molecule `COCCN(C)[C@H]1CC[C@H](Nc2nccc(-c3cccnc3Oc3cc(F)c(NS(=O)(=O)Cc4ccc(F)cc4)c(F)c3F)n2)CC1` [Compound 341, 1-(4-Fluorophenyl)-N-(2,3,6-trifluoro-4-((3-(2-(((1r,4r)-4-((2-methoxyethyl)(methyl)amino)cyclohexyl)amino)pyrimidin-4-yl)pyridin-2-yl)oxy)phenyl)methanesulfonamide hydrochloride] had an IC50 of 0.5 nM. Consider `COCCN(C)[C@H]1CC[C@H](Nc2nccc(-c3cccnc3Oc3cc(F)c(NS(=O)(=O)C4CCCCC4)c(F)c3F)n2)CC1` [Compound 350, N-(2,3,6-Trifluoro-4-((3-(2-(((1r,4r)-4-((2-methoxyethyl)(methyl)amino)cyclohexyl)amino)pyrimidin-4-yl)pyridin-2-yl)oxy)phenyl)cyclohexanesulfonamide], for which the IC50 is 0.42 nM. For `O=S(=O)(Cc1ccc(F)cc1F)Nc1c(F)cc(Oc2ncccc2-c2ccnc(N[C@@H]3CNC[C@@H](F)C3)n2)c(F)c1F` [Compound 351, 1-(2,4-Difluorophenyl)-N-[2,3,6-trifluoro-4-[[3-[2-[[(3S,5S)-5-fluoro-3-piperidyl]amino]pyrimidin-4-yl]-2-pyridyl]oxy]phenyl]methanesulfonamide] the value was 0.91 nM; for `O=S(=O)(Cc1ccccc1Cl)Nc1c(F)cc(Oc2ncccc2-c2ccnc(N[C@@H]3CNC[C@@H](F)C3)n2)c(F)c1F` [Compound 352, 1-(2-Chlorophenyl)-N-[2,3,6-trifluoro-4-[[3-[2-[[(3S,5S)-5-fluoro-3-piperidyl]amino]pyrimidin-4-yl]-2-pyridyl]oxy]phenyl]methanesulfonamide], 0.2 nM; for `O=S(=O)(Cc1cccc(Cl)c1)Nc1c(F)cc(Oc2ncccc2-c2ccnc(N[C@@H]3CNC[C@@H](F)C3)n2)c(F)c1F` [Compound 353, 1-(3-Chlorophenyl)-N-[2,3,6-trifluoro-4-[[3-[2-[[(3S,5S)-5-fluoro-3-piperidyl]amino]pyrimidin-4-yl]-2-pyridyl]oxy]phenyl]methanesulfonamide], 0.3 nM. `O=S(=O)(Cc1ccc(Cl)cc1)Nc1c(F)cc(Oc2ncccc2-c2ccnc(N[C@@H]3CNC[C@@H](F)C3)n2)c(F)c1F` [Compound 354, 1-(4-Chlorophenyl)-N-[2,3,6-trifluoro-4-[[3-[2-[[(3S,5S)-5-fluoro-3-piperidyl]amino]pyrimidin-4-yl]-2-pyridyl]oxy]phenyl]methanesulfonamide] had an IC50 of 0.2 nM.

For `O=S(=O)(Cc1ccccc1F)Nc1c(F)cc(Oc2ncccc2-c2ccnc(N[C@@H]3CNC[C@@H](F)C3)n2)c(F)c1F` [Compound 355, 1-(2-Fluorophenyl)-N-[2,3,6-trifluoro-4-[[3-[2-[[(3S,5S)-5-fluoro-3-piperidyl]amino]pyrimidin-4-yl]-2-pyridyl]oxy]phenyl]methanesulfonamide], the IC50 was 0.2 nM. For `O=S(=O)(Cc1ccccn1)Nc1c(F)cc(Oc2ncccc2-c2ccnc(N[C@@H]3CNC[C@@H](F)C3)n2)c(F)c1F` [Compound 356, 1-(2-Pyridyl)-N-[2,3,6-trifluoro-4-[[3-[2-[[(3S,5S)-5-fluoro-3-piperidyl]amino]pyrimidin-4-yl]-2-pyridyl]oxy]phenyl]methanesulfonamide] the value was 0.2 nM. For `N#Cc1cc(F)ccc1CS(=O)(=O)Nc1c(F)cc(Oc2ncccc2-c2ccnc(N[C@@H]3CNC[C@@H](F)C3)n2)c(F)c1F` [Compound 357, 1-(2-Cyano-4-fluoro-phenyl)-N-[2,3,6-trifluoro-4-[[3-[2-[[(3S,5S)-5-fluoro-3-piperidyl]amino]pyrimidin-4-yl]-2-pyridyl]oxy]phenyl]methanesulfonamide] the value was 1 nM; for `N#Cc1ccccc1CS(=O)(=O)Nc1c(F)cc(Oc2ncccc2-c2ccnc(N[C@@H]3CNC[C@@H](F)C3)n2)c(F)c1F` [Compound 358], 0.3 nM; for `O=S(=O)(Cc1ccncc1)Nc1c(F)cc(Oc2ncccc2-c2ccnc(N[C@@H]3CNC[C@@H](F)C3)n2)c(F)c1F` [Compound 359], 0.3 nM. On to `N#Cc1ccc(CS(=O)(=O)Nc2c(F)cc(Oc3ncccc3-c3ccnc(N[C@@H]4CNC[C@@H](F)C4)n3)c(F)c2F)c(F)c1` [Compound 360], for which the IC50 turned out to be 0.8 nM. For `NC(=O)c1ccc(CS(=O)(=O)Nc2c(F)cc(Oc3ncccc3-c3ccnc(N[C@@H]4CNC[C@@H](F)C4)n3)c(F)c2F)c(F)c1` [Compound 361, 3-Fluoro-4-[[2,3,6-trifluoro-4-[[3-[2-[[(3S,5S)-5-fluoro-3-piperidyl]amino]pyrimidin-4-yl]-2-pyridyl]oxy]phenyl]sulfamoylmethyl]benzamide] the value was 0.3 nM; for `N#Cc1cc(Cl)ccc1CS(=O)(=O)Nc1c(F)cc(Oc2ncccc2-c2ccnc(N[C@@H]3CNC[C@@H](F)C3)n2)c(F)c1F` [Compound 362], 0.2 nM.

Regarding `O=S(=O)(Cc1c(F)cccc1F)Nc1c(F)cc(Oc2ncccc2-c2ccnc(N[C@@H]3CNC[C@@H](F)C3)n2)c(F)c1F` [Compound 363, 1-(2,6-Difluorophenyl)-N-[2,3,6-trifluoro-4-[[3-[2-[[(3S,5S)-5-fluoro-3-piperidyl]amino]pyrimidin-4-yl]-2-pyridyl]oxy]phenyl]methanesulfonamide], the IC50 worked out at 0.2 nM. To `O=S(=O)(Cc1ccc(Cl)cc1F)Nc1c(F)cc(Oc2ncccc2-c2ccnc(N[C@@H]3CNC[C@@H](F)C3)n2)c(F)c1F` [Compound 364, 1-(4-Chloro-2-fluoro-phenyl)-N-[2,3,6-trifluoro-4-[[3-[2-[[(3S,5S)-5-fluoro-3-piperidyl]amino]pyrimidin-4-yl]-2-pyridyl]oxy]phenyl]methanesulfonamide] belongs 0.3 nM; to `O=S(=O)(Cc1ccc(F)cc1Cl)Nc1c(F)cc(Oc2ncccc2-c2ccnc(N[C@@H]3CNC[C@@H](F)C3)n2)c(F)c1F` [Compound 365, 1-(2-Chloro-4-fluoro-phenyl)-N-[2,3,6-trifluoro-4-[[3-[2-[[(3S,5S)-5-fluoro-3-piperidyl]amino]pyrimidin-4-yl]-2-pyridyl]oxy]phenyl]methanesulfonamide], 0.7 nM; to `O=S(=O)(Cc1ccc(F)c(Cl)c1)Nc1c(F)cc(Oc2ncccc2-c2ccnc(N[C@@H]3CNC[C@@H](F)C3)n2)c(F)c1F` [Compound 366, 1-(3-Chloro-4-fluoro-phenyl)-N-[2,3,6-trifluoro-4-[[3-[2-[[(3S,5S)-5-fluoro-3-piperidyl]amino]pyrimidin-4-yl]-2-pyridyl]oxy]phenyl]methanesulfonamide], 0.2 nM.
